Molecules are shown by their SMILES.

A short description of series [1]: in vitro. The conditions noted are these: human, liver microsomes.
Series [2] can be described thus: in vitro. The following applies: rat, liver microsomes.
Series [3] is described as follows: in vitro. The conditions noted are these: mouse, liver microsomes. Background: Microsomes from liver hold many membrane-bound enzymes, among them those of drug oxidation.
Series [4] can be described thus: physchem.

A word on the amount remaining: it is the share of the starting amount still present when the sample was taken. Read a low amount remaining as a greater loss. Broadly, the logP is the decadic logarithm of the partition coefficient of the neutral form, usually between octanol and water. As to `COc1cc(N2CC=C(Oc3ccc(C4CC4)cc3)C2=O)ccc1OCCO`, the fraction remaining at 10 min, 3 µM worked out at 87% in series [1], 71% in series [2] and 74% in series [3]. Also, the logP in series [4] was determined as 3.3.

(Values after ChEMBL document CHEMBL5608206, “Exploring monocyclic core: Discovery of pyrrol-2-one derivatives as a new series of potent MCHR1 antagonists with in vivo efficacy” (Eur J Med Chem, 2024).)
